Our source for the Binding % values is US9926267B2, “Covalent inhibitors of K-Ras G12C” (Araxes Pharma LLC, priority 2013, dated 2018).

Each structure is given as a SMILES string.

T1 sequence (P01116 1-169 isoform P01116-2 G12C): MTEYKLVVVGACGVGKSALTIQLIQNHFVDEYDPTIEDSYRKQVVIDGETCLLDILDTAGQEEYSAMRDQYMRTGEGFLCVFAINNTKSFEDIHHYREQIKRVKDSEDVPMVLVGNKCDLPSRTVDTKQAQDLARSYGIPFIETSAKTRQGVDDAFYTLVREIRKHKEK

The first assay has as its target T1, KRAS G12C 1-169, his-tagged protein, GDP-loaded (Homo sapiens, UniProt P01116, G12C).
T1 construct: KRAS G12C 1-169, his-tagged protein, GDP-loaded
The assay is described as follows: Biochemical assay: covalent binding to KRAS G12C, measured by mass spectrometry. Conditions: Binding activity determined at 24 hrs; Table 7a. The protocol:
Test compounds were prepared as 10 mM stock solutions in DMSO (Fisher cat#BP-231-100). KRAS G12C 1-169, his-tagged protein, GDP-loaded was diluted to 2 μm in buffer (20 mM Hepes, 150 mM NaCl, 1 mM MgCl2). Compounds were tested for activity as follows:
Compounds were diluted to 50× final test concentration in DMSO in 96-well storage plates. Compound stock solutions were vortexed before use and observed carefully for any sign of precipitation. Dilutions were as follow: • For 100 μM final compound concentration, compounds were diluted to 5000 μM (5 μl 10 mM compound stock+5 μl DMSO and mixed well by pipetting. • For 30 μM final compound concentration, compounds were diluted to 1500 μM (3 μl 10 mM compound stock+17 μl DMSO) and mixed well by pipetting. • For […] final compound concentration, compounds were diluted to 500 μM (2 μl 10 mM compound stock+38 μl DMSO) and mixed well by pipetting. 49 μl of the stock protein solution was added to each well of a 96-well PCR plate (Fisher cat#1423027). 1 μl of the diluted 50× compounds were added to appropriate wells in the PCR plate using 12-channel pipettor. Reactions were mixed carefully and thoroughly by pipetting up/down with a 200 μl multi-channel pipettor. The plate was sealed well with aluminum plate seal, and stored in a drawer at room temperature for 2 hrs or 24 hrs. 5 μl of 2% formic acid (Fisher cat#A117) in DI H2O was then added to each well followed by mixing with a pipette. The plate was then resealed with aluminum seal and stored on dry ice until analyzed as described below.
The above described assays were analyzed by mass spectrometry according to the following procedure:
The MS instrument is set to positive polarity, 2 GHz resolution, and low mass (1700) mode and allowed to equilibrate for 30 minutes. The instrument is then calibrated, switched to acquisition mode and the appropriate method loaded.
After another 30 minute equilibration time, a blank batch (i.e., buffer) is run to ensure equipment is operating properly. The samples are thawed at 37° C. for 10 minutes, briefly centrifuged, and transfer to the bench top. Wells A1 and H12 are spiked with 1 uL 500 uM internal standard peptide, and the plates centrifuged at 2000×g for 5 minutes. The method is then run and masses of each individual well recorded.
The masses (for which integration data is desired) for each well are pasted into the platemap and exported from the analysis. Masses for the internal standards are exported as well. The data at 50 ppm is extracted for the +19 charge state, and identity of well A1 is assigned using the internal standard spike and integrated. Peak data is exported as a TOF list and the above steps are repeated individually, for the +20, 21, 22, 23, 24, and charge states.
`C=CC(=O)N1CCN(C2CCN(C(=O)CNc3cc(Cl)c(Cl)cc3O)C2)CC1` (stereo not drawn) [Compound V-4, 1-(4-(1-(2-(4,5-dichloro-2-hydroxyphenyl-amino)acetyl)pyrrolidin-3-yl)piperazin-1-yl)prop-2-en-1-one]: the Binding % entry was “+++ (+++ indicates binding activity greater than 25% and up to 50%)”. Turning to `C=CC(=O)N1CC(N2CCN(CCNc3cc(Cl)c(Cl)cc3O)CC2)C1` [Compound V-15, 1-(3-(4-(2-(4,5-dichloro-2-hydroxyphenyl-amino)ethyl)piperazin-1-yl)azetidin-1-yl)prop-2-en-1-one], the Binding % entry was “+ (+ indicates binding activity from 5% to 15%)”.

The assay is the same for the next values; noted with them: Binding activity determined at 24 hrs; Table 8a.
Consider `C=CS(=O)(=O)N[C@H]1CCCN(C(=O)c2ccc(Cl)c(Cl)c2)C1` [VI-35, (S)-N-(1-(3,4-dichlorobenzoyl)piperidin-3-yl)ethenesulfonamide], for which the Binding % entry is “++ (++ indicates binding activity greater than 10% and up to 20%)”. The same measure, in the same setting: with `C=CC(=O)N1CCN(C(=O)c2cc(Br)c(Cl)cc2O)CC1` [VI-9, 1-(4-(5-bromo-4-chloro-2-hydroxybenzoyl)piperazin-1-yl)prop-2-en-1-one] the entry was “+ (+ indicates binding activity from 5% to 10%)”; with `C=CC(=O)N1CCN(C(=O)c2cc(O)c(Cl)c(-c3ccccc3Cl)c2)CC1` [VI-27], “+++ (+++ indicates binding activity greater than 20% and up to 30%)”; with `C=CS(=O)(=O)NC1CCN(C(=O)c2ccc(Cl)c(Cl)c2)CC1` [VI-33, N-(1-(3,4-dichlorobenzoyl)piperidin-4-yl)ethenesulfonamide], “+ (+ indicates binding activity from 5% to 10%)”. The same measure, in the same setting: with `C=CS(=O)(=O)N1CCN(C(=O)c2ccc(Cl)c(Cl)c2)CC1` [VI-34, (3,4-dichlorophenyl)(4-(vinylsulfonyl)piperazin-1-yl)methanone] the entry was “+++ (+++ indicates binding activity greater than 20% and up to 30%)”. Same read-out and setting: under `C=CC(=O)N1CCN(C(=O)c2ccc(Cl)c(Cl)c2)CC1` [VI-36, 1-(4-(3,4-dichlorobenzoyl)piperazin-1-yl)prop-2-en-1-one] stands “+ (+ indicates binding activity from 5% to 10%)”; under `C=CC(=O)N1CCN(C(=O)c2cc(-c3ccccc3Cl)c[nH]2)CC1` [VI-21, 1-(4-(4-(2-chlorophenyl)-1H-pyrrole-2-carbonyl)piperazin-1-yl)prop-2-en-1-one], “++ (++ indicates binding activity greater than 10% and up to 20%)”; under `C=CC(=O)N1CCN(C(=O)c2cc(-c3ccccc3Cl)c(Cl)cc2O)CC1` [VI-3, 1-(4-(2′,6-Dichloro-4-hydroxy-[1,1′-biphenyl]-3-carbonyl)piperazin-1-yl)prop-2-en-1-one], “++++ (++++ indicates binding activity greater than 30%)”. For `C=CC(=O)N1CCN(C(=O)c2cn(-c3cc(Cl)ccc3Cl)c(=O)cc2O)CC1` [VI-28, 5-(4-acryloylpiperazine-1-carbonyl)-1-(2,5-dichlorophenyl)-4-hydroxypyridin-2(1H)-one], the Binding % result is “++ (++ indicates binding activity greater than 10% and up to 20%)”. Still for that read-out and setting: with `C=CC(=O)N1CCN(C(=O)c2cc(-c3ccccc3Cl)n[nH]2)CC1` [VI-11, 1-(4-(3-(2-chlorophenyl)-1H-pyrazole-5-carbonyl)piperazin-1-yl)prop-2-en-1-one] the entry was “+ (+ indicates binding activity from 5% to 10%)”. For `C=CC(=O)N1CCN(C(=O)c2cc(-c3ccccc3)c(Cl)cc2O)CC1` [VI-29, 1-(4-(6-chloro-4-hydroxybiphenyl-carbonyl)piperazin-1-yl)prop-2-en-1-one], the Binding % result is “+++ (+++ indicates binding activity greater than 20% and up to 30%)”. Consider `C=CC(=O)N1CCN(C(=O)c2cc(-c3cc(Cl)ccc3Cl)c[nH]2)CC1` [VI-31, 1-(4-(4-(2,5-dichlorophenyl)-1H-pyrrole-2-carbonyl)piperazin-1-yl)prop-2-en-1-one], for which the Binding % entry is “+ (+ indicates binding activity from 5% to 10%)”.

Turning to `C=CC(=O)N1CCN(C(=O)c2cc(I)c(Cl)cc2OC)CC1` [VI-2, 1-(4-(4-chloro-5-iodo-2-methoxybenzoyl)piperazin-1-yl)prop-2-en-1-one], the Binding % result was “++ (++ indicates binding activity greater than 10% and up to 20%)”.
